Measured values reported in patent publication US20100196995A1, “Systems and methods for maintaining the dominance and increasing the biomass production of nannochloropsis in an algae cultivation system” (priority 2009, published 2010).
Marks after values point to notes of the source that are not given here.

Tests used:
Format in all cases: cell-based
Nannochloropsis [1] = assay: Example One: pond culture passed through ozone generator, effect on Nannochloropsis
Protocol: (§1) In the following examples, Nannochloropsis was grown in outdoor, open, three-square meter ponds in Vero Beach, Florida. The climate in Vero Beach is semitropical, with mild, cool winters and hot, humid summers. It is a challenging climate for keeping outdoor algal cultures stable and productive. The overnight warmth encourages predation by protozoa, rotifers, and crustaceans. The humidity allows the airborne transport of competing algae, and thus increases the rate of invasion.
(§2) Ozone was added to an algal cultivation system using a commercial ozone generator with accompanying liquid pump, venturi, and air dryer. The machine used was a small model capable of generating 10 grams of ozone per hour. The flow rate of liquid through the generator was about 16 liters per minute. At fifty percent (50%) of maximal ozone generation, the concentration of ozone in the liquid after one pass through the ozone generator was 4.6 mg/L, and at 100% was 9.6 mg/L.
(§3) Two three-square meter ponds were started by taking 500L of culture from a larger pond and passing it through the ozone generator once. One pond was started with the ozonator setting at 50%, the other pond was started with the ozonator setting at 100%. The original algal culture had numerous clumps of Nannochloropsis, cell debris, various diatoms, and some ciliated protozoa grazers.
The two algal cultures were allowed to grow for two days without dilution, but with nutrient addition to see whether the ozone treatment changed the production of biomass and the subsequent stability of the cultures. After two days of batch growth, each pond was diluted one third per day and recirculated each day through the ozone generator for 30 minutes. During this time period about 500L, or one volume equivalent was treated. As before, one pond was passed through the machine at 50% setting and one at 100% setting.

diatoms [2] = assay: Example One: pond culture passed through ozone generator, effect on diatoms; conditions: ozonator setting 50% (4.6 mg/L) or 100% (9.6 mg/L)
Protocol: as §1, §2, §3

[3] = system: ciliated protozoa grazers; assay: Example One: pond culture passed through ozone generator, effect on grazers; conditions: ozonator setting 50% (4.6 mg/L) or 100% (9.6 mg/L)
Protocol: as §1, §2, §3

Nannochloropsis [4] = assay: Example Two: ozone skid tests on outdoor ponds D4, MP1, 25A, Nannochloropsis productivity and resistance
Protocol: as §1
(§4) An ozone skid was assembled on-site utilizing a dry air feed ozone generator capable of producing 10 g/h of ozone.
(§5) A small pump was connected to the system with the ozone added to the liquid recycle line via a Mazzei gas to liquid injector capable of flow rates between 13.2-28.35 1pm@pressures ranging from 15-25 psi. Tests were run on ponds D4 (3 m^2 surface area), MP1 (3 m^2 surface area), and 25A (25 m^2 surface area) with salinities ranging from 20-24 ppt using flow rates of 13.2 and 15.6 1pm@20 psi. The ozonator is equipped with a variable transformer that offers the ability to vary ozone dosage between 0-100%. Tests were run at ozone concentrations of 25%, 50%, 75%, and 100% at flow rates of 13.2 and 15.6 1pm.
Productivity results of the three pond systems run at the high concentrations are listed below:
(§6) Nannochloropsis was unaffected by ozone at these dosages.
(§7) Using the skid mounted system as an in-situ transfer treatment to inoculate new ponds was also tested with very favorable results. Both D4 (3 m^2) and MP1 (3 m^2) were filled with ozone treated inoculums from one of the larger ponds that had large amounts of clumps and decreasing productivity. The effect of this was that most of the clumps (>80%) were broken up and the grazers present inside of the clumps were destroyed as well as free grazers and diatoms in the solution with no effect on Nannochloropsis.

diatoms [5] = assay: Example Two: ozone skid tests on outdoor ponds, ozone disinfection of diatoms
Protocol: as §1, §4, §5, §6, §7

grazers = assay: Example Two: ozone skid tests on outdoor ponds, ozone disinfection of grazers
Protocol: as §1, §4, §5, §6, §7

Nannochloropsis [6] = assay: Exposure of Nannochloropsis cultures to extremely high (shock) levels of ozone; conditions: above 30 milligrams/liter ozone, exposure not prolonged
Excerpt: At alternative step 135, if the level or amount of predators and/or invaders exceeds an actual or desired level, the ozone concentration of the algae cultivation system may be adjusted by applying an effective “shock” amount of ozone. The ozone concentration of the algae cultivation system may be adjusted via the inlet stream that feeds into the algae cultivation system. Applying an effective shock amount of ozone to the inlet stream may result in an initial ozone concentration of the inlet stream above 10 milligrams/liter, which feeds into the algae cultivation system. An unexpected result observed via the experiments described herein is that Nannochloropsis cultures exposed to extremely high levels of ozone (above 30 milligrams/liter) recover (i.e., the Nannochloropsis cultures were not killed), provided the exposure to the ozone is not prolonged. […] Note: steps 130 and 135 may be performed in alternating or rotating fashion, provided the ozone concentration is properly observed.

[7] = 25 m^2 pond 25A, side stream treated
[8] = in-situ transfer treatment of inoculums for D4 and MP1
[9] = 3 m^2 ponds D4 and MP1, concentrations of ozone tested

O=[O+][O-] [Ozone, ozone]
Survival of Nannochloropsis after one pass through the ozone generator (Nannochloropsis [1]; 500L culture, one pass, ozonator setting 50% (4.6 mg/L) or 100% (9.6 mg/L)): only single cells of Nannochloropsis survived | Ill effects from the ozone on Nannochloropsis ponds (Nannochloropsis [1]; both ponds (50% and 100% setting), daily 30 minute recirculation for three days): no ill effects | Production of biomass above that of a control pond (Nannochloropsis [1]; both ponds (50% and 100% setting), recirculated 30 minutes per day through ozone generator for three days, diluted one third per day): 20% | Clumps of Nannochloropsis after one pass through the ozone generator (Nannochloropsis [1]; one pass, ozonator setting 50% (4.6 mg/L) or 100% (9.6 mg/L)): completely broken up | Diatoms after one pass through the ozone generator (diatoms [2]): killed | Grazers after one pass through the ozone generator [3]: killed | Effect of ozone on Nannochloropsis (Nannochloropsis [4]; 3 m^2 ponds D4 and MP1, at these dosages): unaffected | Clumping after exposure to ozone (Nannochloropsis [4]; [7]): clumping did not become as dramatic of a problem | Productivity (Nannochloropsis [4]; Pond 25A (25 m^2), Jul. 09, 2008, total 5950 mg O3, 5615 liters recycled): 16.1 g/m^2/day | Productivity (Nannochloropsis [4]; Pond 25A (25 m^2), Jul. 10, 2008, total 5950 mg O3, 5615 liters recycled): 4.6 g/m^2/day | Productivity (Nannochloropsis [4]; Pond 25A (25 m^2), Jul. 11, 2008, total 5950 mg O3, 5615 liters recycled, pond temperature reached 39° C.): −8.3* g/m^2/day | Productivity (Nannochloropsis [4]; Pond 25A (25 m^2), Jul. 12, 2008, total 5950 mg O3, 5615 liters recycled): 12.2 g/m^2/day | Productivity (Nannochloropsis [4]; Pond 25A (25 m^2), Jul. 13, 2008, total 5950 mg O3, 5615 liters recycled): 10.7 g/m^2/day | Productivity (Nannochloropsis [4]; Pond 25A (25 m^2), Jul. 14, 2008, total 5950 mg O3, 5615 liters recycled): 8.0 g/m^2/day | Productivity (Nannochloropsis [4]; Pond D4 (3 m^2), Jul. 09, 2008, total 500 mg O3, 470 liters recycled): 15.4 g/m^2/day | Productivity (Nannochloropsis [4]; Pond D4 (3 m^2), Jul. 10, 2008, total 500 mg O3, 470 liters recycled): 16.1 g/m^2/day | Productivity (Nannochloropsis [4]; Pond D4 (3 m^2), Jul. 11, 2008, total 500 mg O3, 470 liters recycled): 16.0 g/m^2/day | Productivity (Nannochloropsis [4]; Pond D4 (3 m^2), Jul. 12, 2008, total 500 mg O3, 470 liters recycled): 8.4 g/m^2/day | Productivity (Nannochloropsis [4]; Pond D4 (3 m^2), Jul. 13, 2008, total 500 mg O3, 470 liters recycled): 12.2 g/m^2/day | Productivity (Nannochloropsis [4]; Pond D4 (3 m^2), Jul. 14, 2008, total 500 mg O3, 470 liters recycled): 14.9 g/m^2/day | Productivity (Nannochloropsis [4]; Pond MP1 (3 m^2), Jul. 09, 2008, total 500 mg O3, 470 liters recycled): 13.3 g/m^2/day | Productivity (Nannochloropsis [4]; Pond MP1 (3 m^2), Jul. 10, 2008, total 500 mg O3, 470 liters recycled): 17.2 g/m^2/day | Productivity (Nannochloropsis [4]; Pond MP1 (3 m^2), Jul. 11, 2008, total 500 mg O3, 470 liters recycled): 16.9 g/m^2/day | Productivity (Nannochloropsis [4]; Pond MP1 (3 m^2), Jul. 12, 2008, total 500 mg O3, 470 liters recycled): 9.0 g/m^2/day | Productivity (Nannochloropsis [4]; Pond MP1 (3 m^2), Jul. 13, 2008, total 500 mg O3, 470 liters recycled): 16.0 g/m^2/day | Productivity (Nannochloropsis [4]; Pond MP1 (3 m^2), Jul. 14, 2008, total 500 mg O3, 470 liters recycled): 13.4 g/m^2/day | Effect on Nannochloropsis (Nannochloropsis [4]; [8]): no effect | Clumps broken up (Nannochloropsis [4]; in-situ transfer treatment: D4 and MP1 filled with ozone treated inoculums from a larger pond with large amounts of clumps): > 80% | Clump formation after daily repeated exposure to ozone (Nannochloropsis [4]; small 3 m^2 ponds D4 and MP1): clumps did form in large numbers | Effect of ozone exposure on diatoms present (diatoms [5]; [9]): adversely affected after exposure to ozone resulting in their elimination | Effect of ozone exposure on diatoms (diatoms [5]; [7]): similarly affected | Free diatoms in the solution (diatoms [5]; [8]): destroyed | Effect of ozone exposure on grazers present (grazers; [9]): adversely affected after exposure to ozone resulting in their elimination | Effect of ozone exposure on grazers (grazers; [7]): similarly affected | Grazers inside of the clumps and free grazers in the solution (grazers; [8]): destroyed | Outcome of Nannochloropsis cultures after extremely high levels of ozone (Nannochloropsis [6]): recover
